Experimental data as given in paper PMC10439952, “JT002, a small molecule inhibitor of the NLRP3 inflammasome for the treatment of autoinflammatory disorders” (Scientific Reports, 2023).

Tests used:
Type in all cases: cell-based
[1] = target: T1, NLRP3 inflammasome (Homo sapiens, UniProt Q96P20); test: Inhibition of IL-1β, IL-18 and IL-1α production in human PBMCs stimulated by LPS + ATP; set-up: host or cells: human PBMCs; fresh heparinised human whole blood from healthy volunteers; settings: Human PBMC
Protocol: (§1) Inflammasome activation and whole blood assays were essentially carried out as described earlier. Details can be found in the supplementary information section accompanying this publication. A protocol for blood draws from healthy volunteers and use of the blood in preclinical assays was approved by Western Institutional Review Board, Inc (Puyallup, WA, USA). Informed consent was obtained from each donor prior to the first blood draw.
(§2) Cell viability was determined by addition of an equal volume of CellTiter-Glo® 2.0 reagent (Promega) to the remaining cells/supernatant in each well. Intracellular Caspase-1 activity was measured using the Caspase-Glo® assay (Promega) according to the manufacturer’s instructions. The biochemical capsase-1 assay was conducted at Reaction Biology Corporation (Malvern, USA). Human IL-1β, IL-1α, and TNFα and mouse IL-1β were measured in cell culture supernatants using homogeneous time resolved fluorescence assay kits (HTRF, Cisbio, Codolet, France). Human IL-18 was measured in cell culture supernatants using an ELISA kit (R&D Systems, Minneapolis, MN, USA). Plasma IL-1β concentrations were determined by Quantikine® ELISA (R&D Systems, Minneapolis, MN).
4H). MS: m/z 433.1 (M+H+).
Inflammasome activation.PBMCs (iXCells Biotechnologies, San Diego, USA) were thawed the day before the assay and seeded in complete medium (RPMI 1640 medium with GlutaMAX, supplemented with an additional 2.5 g/L D-glucose, 10% Fet al Bovine Serum, 100 mM Sodium Pyruvate, 1% Penicillin/Streptomycin, 10 mM HEPES and 0.05 mM β -mercaptoethanol) in polystyrene V-bottom 96-well plates at 5x10^4 cells per well and incubated overnight at 37°C with 5% CO 2. […]
flagellin, prepared in Opt iMEM and combined with Lipofectamine 2000. […] After priming Nlrp3 -/- mBMDMs with 100 ng/mL of LPS for 3- 5 h, cells were exposed to 100 ng/mL L18- MDP and incubated overnight.At the end of the incubation period of the assays above, plates were briefly centri fuged and hal f of the cell culture supern atant remo ved and either analysed i mmediately or stored at - 80°C for subs equent cytokine […]

[2] = target: T1, NLRP3 inflammasome; test: Inhibition of IL-1β production in LPS + ATP stimulated (canonical) human whole blood; set-up: host or cells: fresh heparinised human whole blood from healthy volunteers; settings: read-out: Geo Av IC50, IL-1β
Protocol: as §1
as §2, with “MN). […]” for “MN).”
flagellin, prepared in Opt iMEM and combined with Lipofectamine 2000. […]

[3] = system: NLRP1 inflammasome; test: IL-1β production in Nlrp3-/- mouse BMDMs after NLRP1 activation (LPS + L18-MDP); settings: mBMDMs, concentrations up to 10 µM

T1 sequence (Q96P20 whole entry): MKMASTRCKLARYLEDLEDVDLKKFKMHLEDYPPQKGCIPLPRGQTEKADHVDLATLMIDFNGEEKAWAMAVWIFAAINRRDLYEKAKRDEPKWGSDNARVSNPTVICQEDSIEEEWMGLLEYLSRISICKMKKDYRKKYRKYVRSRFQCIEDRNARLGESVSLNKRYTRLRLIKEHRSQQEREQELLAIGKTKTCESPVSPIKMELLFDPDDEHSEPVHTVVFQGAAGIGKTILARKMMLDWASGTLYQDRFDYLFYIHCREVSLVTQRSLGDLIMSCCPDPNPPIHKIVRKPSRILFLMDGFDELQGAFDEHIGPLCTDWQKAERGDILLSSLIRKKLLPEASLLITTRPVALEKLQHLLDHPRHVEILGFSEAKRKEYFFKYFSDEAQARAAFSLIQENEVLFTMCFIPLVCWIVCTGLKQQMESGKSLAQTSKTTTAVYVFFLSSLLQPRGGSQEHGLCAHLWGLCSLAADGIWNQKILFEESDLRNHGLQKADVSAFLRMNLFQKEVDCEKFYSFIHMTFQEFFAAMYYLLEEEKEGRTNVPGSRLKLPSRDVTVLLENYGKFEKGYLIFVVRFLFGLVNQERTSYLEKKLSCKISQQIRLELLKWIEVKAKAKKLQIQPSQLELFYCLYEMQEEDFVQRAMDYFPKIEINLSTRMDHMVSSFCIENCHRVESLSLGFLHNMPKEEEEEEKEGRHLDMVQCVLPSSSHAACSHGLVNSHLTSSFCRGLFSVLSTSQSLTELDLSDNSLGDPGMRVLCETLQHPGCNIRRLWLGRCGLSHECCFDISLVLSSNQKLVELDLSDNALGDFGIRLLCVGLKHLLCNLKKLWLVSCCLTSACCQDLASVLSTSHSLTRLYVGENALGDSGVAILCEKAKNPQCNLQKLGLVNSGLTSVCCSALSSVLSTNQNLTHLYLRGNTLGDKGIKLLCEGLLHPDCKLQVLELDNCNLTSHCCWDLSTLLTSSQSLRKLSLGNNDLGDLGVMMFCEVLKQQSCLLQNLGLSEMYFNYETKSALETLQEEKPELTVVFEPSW

CO[C@@H]1COc2c(S(=O)(=O)NC(=O)Nc3c4c(cc5c3CCC5)CCC4)cnn2C1 [JT002]
IC50 ([1]; read-out: Geo Av IC50, IL-1α): 3 nM | IC50 ([1]; read-out: Geo Av IC50, IL-1β): 4 nM | IC50 ([1]; read-out: Geo Av IC50, IL-18): 4 nM | IC50 [2]: 100 nM | inhibition of IL-1β production after NLRP1 activation [3]: no inhibition of IL-1β production
